Measurements published in patent US20250319056A1, “METHODS FOR TREATING CANCER” (THE TRUSTEES OF INDIANA UNIVERSITY, priority 2024, published 2025).
Like-named read-outs stand apart in the source and are kept apart here.

Key:
HCT-116 cells = test: AlamarBlue cell viability assay, HCT-116 colon cancer cells; format: cell-based, human; conditions: for Average Selectivity Index: CC50 non-cancer cells (FHC, FHs 74Int) compared to EC50 HCT-116; for EC50: AlamarBlue, 48 h with compound, read-out: Human Cell Viability EC50 Colon Cancer (HCT 116)
[1] = AlamarBlue cell viability assay, non-cancerous colon FHC cells; conditions: human
[2] = AlamarBlue cell viability assay, non-cancerous intestine FHs-74Int cells; conditions: human
DLD-1 cells = test: AlamarBlue cell viability assay, DLD-1 colon cancer cells; format: cell-based; conditions: Homo sapiens, 48 h with compound, ^BP = curve baseline plateaued between ~10-20%, read-out: Human Cell Viability EC50 Colon Cancer (DLD1)
HT-29 cells = test: AlamarBlue cell viability assay, HT-29 colon cancer cells; format: cell-based; conditions: Homo sapiens, 48 h with compound, ^BP = curve baseline plateaued between ~10-20%
[3] = FHC non-cancerous colon cells, Human Cell Viability CC50 Colon (FHC), non-cancerous colon cells, AlamarBlue, 48 h
[4] = FHs-74Int non-cancerous intestine cells, Human Cell Viability CC50 Intestine (FHs 74Int), non-cancerous intestine cells, AlamarBlue, 48 h

Compound | Average Selectivity Index (HCT-116 cells) | EC50 (HCT-116 cells; Homo sapiens, HCT-116, 48 h) [µM] | CC50 at 48 h [1, 3] [µM] | CC50 at 48 h [2, 4] [µM] | CC50 at 48 h [1] [µM] | CC50 at 48 h [2] [µM] | EC50 (HCT-116 cells; trihydrate) [µM] | Average Selectivity Index (HCT-116 cells; trihydrate) | EC50 (DLD-1 cells) [µM] | EC50 (HT-29 cells) [µM]
CC(=O)O[C@H]1C(=O)[C@@]2(C)[C@H]([C@H](OC(=O)c3ccccc3)[C@]3(O)C[C@H](OC(=O)[C@H](O)[C@@H](NC(=O)c4ccccc4)c4ccccc4)C(C)=C1C3(C)C)[C@]1(OC(C)=O)CO[C@@H]1C[C@@H]2O [Compound 70, Paclitaxel, reference compound] | 2222.2 | < 0.045 | > 100 | > 100 | – | – | – | – | – | –
COc1cc(NC(C)CCCN)c2ncccc2c1 (centres unmarked) [Compound 71, Primaquine, reference compound] | – | – | 77.4 | 56.6 | – | – | – | – | – | –
CC[n+]1c(-c2ccccc2)c2cc(N)ccc2c2ccc(N)cc21 [Compound 73, Ethidium bromide, reference compound] | – | – | – | – | > 100 | > 100 | – | – | – | –
CN(C)c1ccc2nc3ccc(=[N+](C)C)cc-3sc2c1 [Compound 74, Methylene blue trihydrate, reference compound] | – | 2.3 to 11 | 31.3 | 23.4 | – | – | 2.3 | 11.9 | – | –
CC(C)n1c(/C=C/C(O)CC(O)CC(=O)O)c(-c2ccc(F)cc2)c2ccccc21 (centres unmarked) [Compound 82, Fluvastatin sodium, reference compound] | 11.6 | – | > 100 | > 100 | – | – | – | – | – | –
O=C(N/N=C/c1ccc([N+](=O)[O-])o1)c1cccs1 [Compound 120] | 7.4 | 9.1 | 84 | 50 | – | – | – | – | 14 | 3.6
O=C(N/N=C/c1ccc([N+](=O)[O-])o1)c1ccc(Cl)s1 [Compound 121] | 6.2 | 8.2 | 51 | 49 | – | – | – | – | 8 | 5.7
O=C(N/N=C/c1ccc([N+](=O)[O-])o1)c1ccccc1 [Compound 122] | 6.5 | 13 | > 100 | 71 | – | – | – | – | 18 | 4.9
O=C(N/N=C/c1ccc([N+](=O)[O-])o1)c1ccncc1 [Compound 123] | 2.6 | 28 | 70 | 75 | – | – | – | – | – | –
COc1ccc(C(=O)N/N=C/c2ccc([N+](=O)[O-])o2)cc1 [Compound 124] | 16.1 | 4.6 | > 100 | 47 | – | – | – | – | 7.6 | 2.7
CN(C)c1ccc(C(=O)N/N=C/c2ccc([N+](=O)[O-])o2)cc1 [Compound 125] | 11.8 | 8.5 | > 100 | > 100 | – | – | – | – | > 100 | 0.29
O=C(N/N=C/c1ccc([N+](=O)[O-])o1)c1cccc2ccccc12 [Compound 126] | 5.7 | 9.6 | 58 | 52 | – | – | – | – | 11 | 4.4
O=C(N/N=C/c1ccc([N+](=O)[O-])o1)c1ccccc1Oc1ccccc1 [Compound 127] | – | 11 | 49 | 55 | – | – | – | – | 26 | –
CCN(CC)S(=O)(=O)c1cccc(C(=O)N/N=C/c2ccc([N+](=O)[O-])o2)c1 [Compound 129] | 12.0 | 7.8 | > 100 | 8.7 | – | – | – | – | 8.9 | 4.2
O=C(N/N=C/c1ccc([N+](=O)[O-])o1)c1ccc(NS(=O)(=O)c2cccs2)cc1 [Compound 130] | 9.3 | 9.1 | > 100 | 69 | – | – | – | – | 57 | 8.1
O=C(N/N=C/c1ccc([N+](=O)[O-])o1)c1ccc(NS(=O)(=O)c2ccc(Br)cc2)cc1 [Compound 131] | 18.8 | 5.3 | > 100 | > 100 | – | – | – | – | 29 | 3.6
CCOc1ccc(S(=O)(=O)Nc2ccc(C(=O)N/N=C/c3ccc([N+](=O)[O-])o3)cc2)cc1 [Compound 132, 4-ethoxy-N-(4-(2-((5-nitrofuran-2-yl)methylene)hydrazine-1-carbonyl)phenyl)benzenesulfonamide] | 52.0 | 1.8 | 89 | > 100 | – | – | – | – | 18 | 2.3
O=C1CN(/N=C/c2ccc(O)c3ncccc23)C(=O)N1 [Compound 133] | 2.6 | 39 | > 100 | > 100 | – | – | – | – | – | –
CC1CS(=O)(=O)CCN1/N=C/c1ccc(O)c2ncccc12 (centres unmarked) [Compound 134] | 13 | 7 | > 100 | 87 | – | – | – | – | 6.3 | 8.1
O=C(N/N=C/c1ccc(O)c2ncccc12)c1cccs1 [Compound 135] | 27 | 3.2 | 85 | 86 | – | – | – | – | 2.3 | 3.6
O=C(N/N=C/c1ccc(O)c2ncccc12)c1ccc(Cl)s1 [Compound 136] | 8.8 | 3.8 | 25 | 42 | – | – | – | – | 3.9 | 3.2
O=C(N/N=C/c1ccc(O)c2ncccc12)c1ccncc1 [Compound 138] | 1.8 | 48 | > 100 | 69 | – | – | – | – | – | –
CN(C)c1ccc(C(=O)N/N=C/c2ccc(O)c3ncccc23)cc1 [Compound 140] | 8.8 | 4.4 | 35 | 42 | – | – | – | – | – | 2.4
COc1ccc(C(=O)N/N=C/c2ccco2)cc1 [Compound 158] | 1.0 | > 100 | > 100 | > 100 | – | – | – | – | – | –
O=Cc1ccc(O)c2ncccc12 [Compound 159] | 1.6 | 6.2 | 4.4 | 15 | – | – | – | – | – | –
O=Cc1ccc([N+](=O)[O-])o1 [Compound 160] | 1.9 | 29 | 53 | 53 | – | – | – | – | – | –
COc1ccc(C(=O)NN)cc1 [Compound 161] | 1.0 | > 100 | > 100 | > 100 | – | – | – | – | – | –
CC1CS(=O)(=O)CCN1/N=C/c1ccc([N+](=O)[O-])o1 (centres unmarked) [Nifurtimox (Nfx - 106), Nifurtimox, reference compound] | 1.0 | > 100 | > 100 | > 100 | – | – | – | – | – | –
O=C1CN(/N=C/c2ccc([N+](=O)[O-])o2)C(=O)N1 [Nitrofurantoin (Nft), Nitrofurantoin, reference compound] | 1.1 | 95 | > 100 | > 100 | – | – | – | – | – | –
O=[N+]([O-])c1ccc(O)c2ncccc12 [Nitroxoline, reference compound] | 1.6 | 22 | 28 | 41 | – | – | – | – | – | –
